# In patent US20090069181A1, “Product and Process for Treating Water Bodies, Sediments and Soils” (SOLVAY SA, priority 2006, published 2009):
# Tested on: blue green algae
# Assay: Pond treatment, algae control in a four-foot deep pond (Example 1)
# Type: in vivo
# Conditions: treated every two weeks for approximately 6 years during the warmer season
# Description: The solid form of this invention containing approximately 70% calcium peroxide was applied to the pond by spreading it over the surface at a rate of 10 lbs per acre foot.
compound,measurement,value
O=S(=O)([O-])[O-].[Cu+2] [copper sulfate],control of algae,control of algae was still difficult
